# Data from ChEMBL document CHEMBL3864164, “II. Discovery of a novel series of CXCR3 antagonists with a beta amino acid core” (Bioorg Med Chem Lett, 2016).
# Tests used:
# [1] = Absolute oral bioavailability in Balb/c mouse at 10 mg/kg; format: ADME, organism-based; conditions: in vivo
# [2] = Drug degradation in solid phase after few months; format: physicochemical; conditions: read-out: Drug degradation
# [3] = Solubility of the compound at pH 1.1 to 7.4; format: physicochemical; conditions: buffer
Compound,bioavailability [1] [%],degraded [2] [%],solubility [3] [µM]
Cl.O=C(O)C[C@@H](c1ccc(Cl)c(F)c1)N(Cc1ccc(OCCN2C(=O)CCC2=O)c(F)c1)CC1CC1,70,5 to 7,3000
CCCN(Cc1ccc(OCCN2C(=O)CCC2=O)c(C)c1)C(CC(=O)O)c1ccc(Cl)s1.Cl (configuration not stated),–,5 to 7,3000
COc1cc(CN(CC2CC2)C(CC(=O)O)c2ccc3c(c2)CCO3)ccc1OCCn1c(=O)ccn(C)c1=O (configuration not stated),–,5 to 7,3000
CCCN(Cc1ccc(OCCN2C(=O)CCC2=O)c(C)c1)C1c2ccc(Cl)cc2CC1C(=O)O (configuration not stated),–,5 to 7,3000
COc1cc(CN(CC(C)C)[C@@H](CC(=O)O)c2ccc(Cl)cc2)ccc1OCCn1c(=O)ccn(C)c1=O,–,5 to 7,3000
Cc1cc(CN(CC(C)C)[C@@H](CC(=O)O)c2ccc(Cl)c(F)c2)ccc1OCCN1C(=O)CCC1=O.Cl,–,5 to 7,3000
Cc1cc(CN(CC2CCCC2)[C@@H](CC(=O)O)c2ccc(Cl)c(F)c2)ccc1OCCN1C(=O)CCC1=O.Cl,–,5 to 7,3000
CCCN(Cc1ccc(OCCN2C(=O)CCC2=O)c(C)c1)[C@@H](CC(=O)O)c1ccc(Cl)cc1,–,5 to 7,3000
COc1cc(CN(CC2CC2)[C@@H](CC(=O)O)c2ccc(Cl)c(F)c2)ccc1OCCN1C(=O)CCC1=O.Cl,5.4,5 to 7,3000
Cc1cc(CN(CC2CCCC2)C(CC(=O)O)c2ccc(Cl)cc2)ccc1OCCN1C(=O)CCC1=O (configuration not stated),–,5 to 7,3000
COc1cc(CN(CC(C)C)C(CC(=O)O)c2ccc(Cl)cc2)ccc1OCCn1c(=O)ccn(C)c1=O (configuration not stated),–,5 to 7,3000
COc1cc(CN(CC(C)C)C(CC(=O)O)c2ccc(Cl)cc2Cl)ccc1OCCN1C(=O)CCC1=O (configuration not stated),–,5 to 7,3000
Cl.O=C(O)C[C@@H](c1ccc(Cl)c(Cl)c1)N(Cc1ccc(OCCN2C(=O)CCC2=O)c(F)c1)CC1CC1,64,5 to 7,3000
CCN(Cc1ccc(OCCN2C(=O)CCC2=O)c(C)c1)C(CC(=O)O)c1ccc(Cl)cc1 (configuration not stated),–,5 to 7,3000
Cc1cc(CN(C)C(CC(=O)O)c2ccc(Cl)cc2)ccc1OCCn1c(=O)ccn(C)c1=O (configuration not stated),–,5 to 7,3000
COc1cc(CN(C2CCC2)C(CC(=O)O)c2ccc(Cl)cc2)ccc1OCCn1c(=O)ccn(C)c1=O (configuration not stated),–,5 to 7,3000
Cc1cc(CN(CC(C)C)C(CC(=O)O)c2ccc(Cl)c(F)c2)ccc1OCCN1C(=O)CCC1=O (configuration not stated),–,5 to 7,3000
Cc1cc(CN(CC(C)C)C(CC(=O)O)c2ccc3c(c2)CCO3)ccc1OCCN1C(=O)CCC1=O (configuration not stated),–,5 to 7,3000
Cc1cc(CN(CC(C)C)C(CC(=O)O)c2ccc(Cl)cc2)ccc1OCCN1C(=O)CCC1=O (configuration not stated),–,5 to 7,3000

Compound,bioavailability [1] [%],degraded [2] [%],solubility [3] [µM]
COc1cc(CN(CC2CCCC2)[C@@H](CC(=O)O)c2ccc(Cl)c(F)c2)ccc1OCCN1C(=O)CCC1=O,–,5 to 7,3000
Cc1cc(CN(C2CCC2)C(CC(=O)O)c2ccc(Cl)cc2)ccc1OCCn1c(=O)ccn(C)c1=O (configuration not stated),–,5 to 7,3000
CCN(Cc1ccc(OCCn2c(=O)ccn(C)c2=O)c(C)c1)C(CC(=O)O)c1ccc(Cl)cc1 (configuration not stated),–,5 to 7,3000
COc1cc(CN(CC(C)C)C(CC(=O)O)c2ccc(Cl)c(F)c2)ccc1OCCN1C(=O)CCC1=O (configuration not stated),–,5 to 7,3000
CCN(Cc1ccc(OCCn2c(=O)ccn(C)c2=O)c(OC)c1)C(CC(=O)O)c1ccc(Cl)cc1 (configuration not stated),–,5 to 7,3000
CCCCN(Cc1ccc(OCCn2c(=O)ccn(C)c2=O)c(OC)c1)C(CC(=O)O)c1ccc(Cl)cc1 (configuration not stated),–,5 to 7,3000
COc1cc(CN(CC(C)C)C(CC(=O)O)c2ccc3c(c2)CCO3)ccc1OCCN1C(=O)CCC1=O (configuration not stated),–,5 to 7,3000
COc1cc(CN(CC(C)C)[C@H](CC(=O)O)c2ccc(Cl)cc2)ccc1OCCn1c(=O)ccn(C)c1=O,–,5 to 7,3000
CCCN(Cc1ccc(OCCn2c(=O)ccn(C)c2=O)c(OC)c1)C(CC(=O)O)c1ccc(Cl)cc1 (configuration not stated),–,5 to 7,3000
C[C@@H](c1ccc(Cl)cc1)N(Cc1ccc(OCCN2C(=O)CCC2=O)c(C(=O)O)c1)CC1CCCC1,–,5 to 7,3000
Cc1cc(CN(CC2CCCCC2)C(CC(=O)O)c2ccc(Cl)cc2)ccc1OCCN1C(=O)CCC1=O (configuration not stated),–,5 to 7,3000
CCCN(Cc1ccc(OCCN2C(=O)CCC2=O)c(OC)c1)C(CC)c1ccc(Cl)c(C(=O)O)c1 (configuration not stated),–,5 to 7,3000
CCCN(Cc1ccc(OCCN2C(=O)CCC2=O)c(C)c1)C(CC(=O)O)c1ccc(Cl)cc1 (configuration not stated),–,5 to 7,3000
COc1cc(CN(CC(C)C)C(CC(=O)O)c2ccc3c(c2)CCO3)ccc1OCCn1c(=O)ccn(C)c1=O (configuration not stated),–,5 to 7,3000
COc1cc(CN(CC2CC2)C(CC(=O)O)c2ccc(Cl)cc2)ccc1OCCn1c(=O)ccn(C)c1=O (configuration not stated),–,5 to 7,3000
CCCN(Cc1ccc(OCCN2C(=O)CCC2=O)c(OC)c1)C(C(=O)O)c1ccc(Cl)cc1 (configuration not stated),–,5 to 7,3000
Cc1cc(CN(Cc2ccc(F)cc2)C(CC(=O)O)c2ccc(Cl)cc2)ccc1OCCN1C(=O)CCC1=O.Cl (configuration not stated),–,5 to 7,3000
Cc1cc(CN(CC2CC2)C(CC(=O)O)c2ccc(Cl)cc2)ccc1OCCn1c(=O)ccn(C)c1=O (configuration not stated),–,5 to 7,3000
Cc1cc(CN(CC2CC2)C(CC(=O)O)c2ccc(Cl)cc2)ccc1OCCN1C(=O)CCC1=O (configuration not stated),–,5 to 7,3000

Compound,bioavailability [1] [%],degraded [2] [%],solubility [3] [µM]
CCc1cc(CN(CC2CCCC2)[C@@H](CC(=O)O)c2ccc(Cl)cc2)ccc1OCCN1C(=O)CCC1=O,–,5 to 7,3000
Cc1cc(CN(CC(C)C)C(CC(=O)O)c2ccc(Cl)c(Cl)c2)ccc1OCCN1C(=O)CCC1=O (configuration not stated),–,5 to 7,3000
Cc1cc(CN(CC2CCCC2)[C@@H](CC(=O)O)c2ccc(Cl)cc2)ccc1OCCN1C(=O)CCC1=O,14,5 to 7,3000
Cc1cc(CN(CC(C)C)C(CC(=O)O)c2ccc(Cl)cc2Cl)ccc1OCCN1C(=O)CCC1=O (configuration not stated),–,5 to 7,3000
CCCCN(Cc1ccc(OCCn2c(=O)ccn(C)c2=O)c(OC)c1)C(CC(=O)O)c1ccc2c(c1)CCO2 (configuration not stated),–,5 to 7,3000
CCCN(Cc1ccc(OCCN2C(=O)CCC2=O)c(C)c1)[C@H](CC(=O)O)c1ccc(Cl)cc1,–,5 to 7,3000
CCCN(Cc1ccc(OCCN2C(=O)CCC2=O)c(OC)c1)C(c1ccc(Cl)cc1)C(C)C(=O)O (configuration not stated),–,5 to 7,3000
CCCN(Cc1ccc(OCCN2C(=O)CCC2=O)c(C)c1)C(c1ccc(Cl)cc1)C1(C(=O)O)CC1 (configuration not stated),–,5 to 7,3000
CCCN(Cc1ccc(OCCn2c(=O)ccn(C)c2=O)c(OC)c1)C(CC(=O)O)c1ccc2c(c1)CCO2 (configuration not stated),–,5 to 7,3000
COc1cc(CN(CC(C)C)C(CC(=O)O)c2ccc(Cl)c(Cl)c2)ccc1OCCN1C(=O)CCC1=O (configuration not stated),–,5 to 7,3000
COc1cc(CN(CC(C)C)C(CC(=O)O)c2ccc(Cl)cc2)ccc1OCCN1C(=O)CCC1=O (configuration not stated),–,5 to 7,3000
Cl.O=C(O)C[C@@H](c1ccc(Cl)c(F)c1)N(Cc1ccc(OCCN2C(=O)CCC2=O)c(Cl)c1)CC1CC1,35,5 to 7,3000
Cc1cc(CN(CC(C)C)[C@@H](CC(=O)O)c2ccc(Cl)cc2)ccc1OCCN1C(=O)CCC1=O,–,5 to 7,3000
CCCCN(Cc1ccc(OCCN2C(=O)CCC2=O)c(C)c1)C(CC(=O)O)c1ccc(Cl)cc1 (configuration not stated),–,5 to 7,3000
Cc1cc(CN(CCC(F)(F)F)C(CC(=O)O)c2ccc(Cl)cc2)ccc1OCCN1C(=O)CCC1=O (configuration not stated),–,5 to 7,3000
CCCN(Cc1ccc(OCCn2c(=O)ccn(C)c2=O)c(C)c1)C(CC(=O)O)c1ccc(Cl)cc1 (configuration not stated),–,5 to 7,3000
Cc1cc(CN(CC2CC2)[C@@H](CC(=O)O)c2ccc(Cl)cc2)ccc1OCCN1C(=O)CCC1=O,–,5 to 7,3000
Cc1cc(CN(C2CCC2)C(CC(=O)O)c2ccc(Cl)cc2)ccc1OCCN1C(=O)CCC1=O (configuration not stated),–,5 to 7,3000
